Test results from paper PMC5358098 (ACS chemical neuroscience, 2016).
Like-named read-outs stand apart in the source and are kept apart here.

Legend:
[1] = molecular target: T1, CB1R (Mus musculus, UniProt P47746)
[2] = molecular target: T2, CB1R (Homo sapiens, UniProt P21554); assay: cell-based; format: cell-based
[3] = molecular target: T2, CB1R; assay: cell-based; format: cell-based; remark: listed apart in the source
[4] = molecular target: T1, CB1R; format: cell-based; conditions: Neuro2a, 10 min
[5] = molecular target: T2, CB1R; format: cell-based; conditions: Neuro2a, 30 min
[6] = molecular target: T2, CB1R; assay: cell-based
[7] = system: CB1R; format: cell-based; conditions: mean of data for the pathway (Table 3), all cells and orthosteric ligands
[8] = molecular target: T2, CB1R; format: cell-based; conditions: HEK293A, 30 min
[9] = system: CB1R; format: cell-based; conditions: mean of data for the pathway (Table 2), all cells and orthosteric ligands
[10] = system: CB1R
[11] = molecular target: T1, CB1R; format: cell-based; conditions: Neuro2a, 10 min; remark: listed apart in the source
[12] = system: CB1R; conditions: cited from earlier work
[13] = molecular target: T2, CB1R; assay: [3H]SR141716A equilibrium binding, hCB1R CHO cell membranes
[14] = molecular target: T2, CB1R; format: cell-based; conditions: HEK293A, 10 min
[15] = molecular target: T1, CB1R; assay: Operational model bias analysis, STHdh^Q7/Q7 cells; conditions: STHdh^Q7/Q7
[16] = molecular target: T1, CB1R; assay: Operational model bias analysis, Neuro2a cells; format: cell-based; conditions: for ΔΔlog R β-arrestin1/pPLCβ3: reference 2-AG + GAT100
[17] = system: hCB1R; assay: Operational model bias analysis, HEK293A cells; format: cell-based, human; conditions: HEK293A; for ΔΔlog R β-arrestin1/cAMP / ΔΔlog R β-arrestin1/pPLCβ3: reference 2-AG + GAT100
[18] = 500 nM 2-AG + 1 nM-10 μM allosteric modulator
[19] = 500 nM AEA + 1 nM-10 μM allosteric modulator
[20] = 500 nM CP55,940 + 1 nM-10 μM allosteric modulator

T1 sequence (P47746 whole entry): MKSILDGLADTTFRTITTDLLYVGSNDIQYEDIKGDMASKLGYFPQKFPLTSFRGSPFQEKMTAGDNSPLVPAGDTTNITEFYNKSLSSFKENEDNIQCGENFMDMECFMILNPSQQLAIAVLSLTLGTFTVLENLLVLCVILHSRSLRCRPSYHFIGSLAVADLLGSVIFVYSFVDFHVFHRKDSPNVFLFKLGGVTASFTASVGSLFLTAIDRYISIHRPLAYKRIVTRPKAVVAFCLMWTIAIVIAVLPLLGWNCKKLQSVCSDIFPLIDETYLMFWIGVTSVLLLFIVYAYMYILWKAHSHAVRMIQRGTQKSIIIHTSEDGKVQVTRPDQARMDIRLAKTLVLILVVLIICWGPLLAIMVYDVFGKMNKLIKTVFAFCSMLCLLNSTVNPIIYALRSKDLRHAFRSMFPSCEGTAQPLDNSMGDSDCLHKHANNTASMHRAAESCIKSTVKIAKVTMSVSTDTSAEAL
T2 sequence (P21554 whole entry): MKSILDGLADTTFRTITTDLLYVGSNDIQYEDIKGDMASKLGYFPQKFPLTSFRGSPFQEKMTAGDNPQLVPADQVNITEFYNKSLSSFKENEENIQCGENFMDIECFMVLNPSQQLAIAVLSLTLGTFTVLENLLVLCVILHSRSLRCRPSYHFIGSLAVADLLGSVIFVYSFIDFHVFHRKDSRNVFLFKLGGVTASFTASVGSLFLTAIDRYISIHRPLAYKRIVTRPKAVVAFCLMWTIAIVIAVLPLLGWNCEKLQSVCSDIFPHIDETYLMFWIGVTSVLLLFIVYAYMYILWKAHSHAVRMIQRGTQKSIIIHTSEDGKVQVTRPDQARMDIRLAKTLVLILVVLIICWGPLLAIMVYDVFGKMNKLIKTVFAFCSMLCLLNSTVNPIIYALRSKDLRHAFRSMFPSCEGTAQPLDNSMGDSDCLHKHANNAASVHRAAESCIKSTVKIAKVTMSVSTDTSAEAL

For CCCCCCC(C)(C)c1ccc([C@@H]2C[C@H](O)CC[C@H]2CCCO)c(O)c1 [CP55,940, 2-[(1R,2R,5R)-5-hydroxy-2-(3-hydroxypropyl)cyclohexyl]-5-(2-methyloctan-2-yl)phenol], the “CB1R internalization, agonist alone” value [1] was “sustained CB1R internalization beginning at 30 min” and the Emax ([2]; read-out: Emax (% cAMP inhibition), agonist alone) was 106 ± 11.4%.
For CCc1c(C(=O)NCCc2ccc(N3CCCCC3)cc2)[nH]c2ccc(N=C=S)cc12 [GAT100, 3-ethyl-5-isothiocyanato-N-(4-(piperidin-1-yl)phenethyl)-1H-indole-2-carboxamide], the “Emax pPLCβ3/Total PLCβ3, 2-AG” value ([3]; HEK293A, 1 nM-10 μM 2-AG + 1 μM NAM, 10 min) was 0.39 ± 0.02, the “Emax pPLCβ3/Total PLCβ3, AEA” value ([3]; HEK293A, 1 nM-10 μM AEA + 1 μM NAM, 10 min) was 0.36 ± 0.01 and the “Emax pPLCβ3/Total PLCβ3, CP55,940” value ([3]; HEK293A, 1 nM-10 μM CP55,940 + 1 μM NAM, 10 min) was 0.39 ± 0.01. For the same molecule, the IC50 ([3]; IC50, PLCβ3 phosphorylation, CP55,940) was 0.0766 µM, the “Emax pPLCβ3/Total PLCβ3, 2-AG” value ([4]; 1 nM-10 μM 2-AG + 1 μM NAM) was 0.34 ± 0.02 and the “Emax pPLCβ3/Total PLCβ3, AEA” value ([4]; 1 nM-10 μM AEA + 1 μM NAM) was 0.37 ± 0.02. For the same molecule, the “Emax pPLCβ3/Total PLCβ3, CP55,940” value ([4]; 1 nM-10 μM CP55,940 + 1 μM NAM) was 0.39 ± 0.02, the “Emax (BRETEff), 2-AG” value ([5]; 1 nM-10 μM 2-AG + 1 μM NAM) was 0.25 ± 0.03 and the “Emax (BRETEff), AEA” value ([5]; 1 nM-10 μM AEA + 1 μM NAM) was 0.29 ± 0.02. For the same molecule, the “Emax (BRETEff), CP55,940” value ([5]; 1 nM-10 μM CP55,940 + 1 μM NAM) was 0.34 ± 0.02, the IC50 [6] was 0.0358 µM and the “Emax, β-arrestin1 (pathway ligand bias summary)” value ([6]; mean of data for the pathway (Table 1), all cells and orthosteric ligands) was 0.30 ± 0.01. The “effect on CP55,940-induced CB1R internalization (fraction of CB1R at the plasma membrane)” value ([1]; STHdh^Q7/Q7, 1 μM + 500 nM CP55,940) was “reversed this effect”, the “Emax, ERK (pathway ligand bias summary)” value [7] was 0.32 ± 0.01 and the “Emax (BRETEff), 2-AG” value ([8]; 1 nM-10 μM 2-AG + 1 μM NAM) was 0.29 ± 0.01. The “Emax (BRETEff), AEA” value ([8]; 1 nM-10 μM AEA + 1 μM NAM) was 0.37 ± 0.03, the “Emax (BRETEff), CP55,940” value ([8]; 1 nM-10 μM CP55,940 + 1 μM NAM) was 0.30 ± 0.04 and the “Emax, PLCβ3 (pathway ligand bias summary)” value [9] was 0.38 ± 0.01. For the same molecule, the “Emax, 2-AG (probe dependence summary)” value ([10]; mean of data for 2-AG (Tables 1-4)) was 0.31 ± 0.02, the “Emax, AEA (probe dependence summary)” value ([10]; mean of data for AEA (Tables 1-4)) was 0.36 ± 0.03 and the “Emax, CP55,940 (probe dependence summary)” value ([10]; mean of data for CP55,940 (Tables 1-4)) was 0.33 ± 0.02. The “Emax, HEK293A (cell dependence summary)” value ([10]; mean of data for HEK293A (Tables 1-3)) was 0.34 ± 0.01, the “Emax, Neuro2a (cell dependence summary)” value ([10]; mean of data for Neuro2a (Tables 1-3)) was 0.32 ± 0.01 and the “Emax, STHdh^Q7/Q7 (cell dependence summary)” value ([10]; mean of data for STHdh^Q7/Q7 (Tables 1-3)) was 0.34 ± 0.02. The “Emax pERK1/2/Total ERK1/2, 2-AG” value ([11]; 1 nM-10 μM 2-AG + 1 μM NAM) was 0.31 ± 0.02, the “Emax pERK1/2/Total ERK1/2, AEA” value ([11]; 1 nM-10 μM AEA + 1 μM NAM) was 0.28 ± 0.02 and the “Emax pERK1/2/Total ERK1/2, CP55,940” value ([11]; 1 nM-10 μM CP55,940 + 1 μM NAM) was 0.33 ± 0.02. The “effect on CP55,940 equilibrium binding by CB1R” value [12] was “increase CP55,940 equilibrium binding”, the EC50 [13] was 0.41 µM and the “[3H]SR141716A binding at 10 μM” value ([13]; 10 μM) was “did not completely abrogate”. For the same molecule, the “fold greater potency than Org27569 as inhibitor of [3H]SR141716A binding” value ([13]; EC50 ratio) was ~ 6 fold, the Emax ([13]; read-out: Emax, [3H]SR141716A binding) was 22.6% and the IC50 [2] was 0.741 µM. The “effect on cAMP levels in the absence of orthosteric agonists (inverse agonism)” value ([2]; HEK-CRE, 10 μM forskolin + 1 nM to 10 μM compound alone, 4 h) was “did not affect cAMP accumulation”, the IC50 ([2]; IC50, cAMP, CP55,940) was 0.834 µM and the “Emax, cAMP (pathway ligand bias summary)” value ([2]; mean of data for the pathway (Table 4), cAMP Emax divided by 100) was 0.16 ± 0.04. The “Emax pERK1/2/Total ERK1/2, 2-AG” value ([14]; 1 nM-10 μM 2-AG + 1 μM NAM) was 0.33 ± 0.02, the “Emax pERK1/2/Total ERK1/2, AEA” value ([14]; 1 nM-10 μM AEA + 1 μM NAM) was 0.31 ± 0.02 and the “Emax pERK1/2/Total ERK1/2, CP55,940” value ([14]; 1 nM-10 μM CP55,940 + 1 μM NAM) was 0.29 ± 0.02. For the same molecule, the “BF β-arrestin1/pERK1/2” value [15, 18] was 1.0, the “BF β-arrestin1/pPLCβ3” value [15, 18] was 1.0 and the “BF β-arrestin1/pERK1/2” value [15, 19] was 1.3. For the same molecule, the “BF β-arrestin1/pPLCβ3” value [15, 19] was 7.9, the “BF β-arrestin1/pERK1/2” value [15, 20] was 0.6 and the “BF β-arrestin1/pPLCβ3” value [15, 20] was 5.0. For the same molecule, the “BF β-arrestin1/pERK1/2” value [16, 18] was 1.0, the “BF β-arrestin1/pPLCβ3” value [16, 18] was 1.0 and the “ΔΔlog R β-arrestin1/pPLCβ3” value [16, 18] was 0.0 ± 0.1. For the same molecule, the “BF β-arrestin1/pERK1/2” value [16, 19] was 7.9, the “BF β-arrestin1/pPLCβ3” value [16, 19] was 15.8 and the “ΔΔlog R β-arrestin1/pPLCβ3” value [16, 19] was 1.2 ± 0.1. The “BF β-arrestin1/pERK1/2” value [16, 20] was 10.0, the “BF β-arrestin1/pPLCβ3” value [16, 20] was 3.2 and the “ΔΔlog R β-arrestin1/pPLCβ3” value [16, 20] was 0.5 ± 0.2. For the same molecule, the “BF β-arrestin1/cAMP” value [17, 18] was 1.0, the “BF β-arrestin1/pERK1/2” value [17, 18] was 1.0 and the “BF β-arrestin1/pPLCβ3” value [17, 18] was 1.0. The “ΔΔlog R β-arrestin1/cAMP” value [17, 18] was 0.0 ± 0.1, the “ΔΔlog R β-arrestin1/pPLCβ3” value [17, 18] was 0.0 and the “BF β-arrestin1/cAMP” value [17, 19] was 0.8. For the same molecule, the “BF β-arrestin1/pERK1/2” value [17, 19] was 0.3, the “BF β-arrestin1/pPLCβ3” value [17, 19] was 0.1 and the “ΔΔlog R β-arrestin1/cAMP” value [17, 19] was “–0.1 ± 0.1”. For the same molecule, the “ΔΔlog R β-arrestin1/pPLCβ3” value [17, 19] was “–1.2 ± 0.8”, the “BF β-arrestin1/cAMP” value [17, 20] was 1.3 and the “BF β-arrestin1/pERK1/2” value [17, 20] was 0.6. The “BF β-arrestin1/pPLCβ3” value [17, 20] was 0.6, the “ΔΔlog R β-arrestin1/cAMP” value [17, 20] was 0.1 ± 0.1 and the “ΔΔlog R β-arrestin1/pPLCβ3” value [17, 20] was “–0.2 ± 0.1”.
